Test results as given in PubChem BioAssay (NCI).
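Compound exposure: 48 hours, 5 concentrations, 96-well plates. At the GI50, growth is halved. The concentration for full growth arrest is given as TGI.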

Experiments:
Assay in all cases: inhibition of tumour cell growth, NCI panel, 48 h
SF-268 CNS = tested on: SF-268 CNS
HCC-2998 colon = tested on: HCC-2998 colon
U251 CNS = tested on: U251 CNS
A549 NSCLC = tested on: A549 NSCLC
A498 renal = tested on: A498 renal
SK-OV-3 ovarian = tested on: SK-OV-3 ovarian
CCRF-CEM leukemia = tested on: CCRF-CEM leukemia
OVCAR-4 ovarian = tested on: OVCAR-4 ovarian
NCI-H23 lung = tested on: NCI-H23 lung
CAKI-1 renal = tested on: CAKI-1 renal

| SMILES | GI50 (SF-268 CNS) [µM] | TGI (SF-268 CNS) [µM] | GI50 (HCC-2998 colon) [µM] | TGI (HCC-2998 colon) [µM] | GI50 (U251 CNS) [µM] | TGI (U251 CNS) [µM] | GI50 (A549 NSCLC) [µM] | TGI (A549 NSCLC) [µM] | GI50 (A498 renal) [µM] | TGI (A498 renal) [µM] | GI50 (SK-OV-3 ovarian) [µM] | TGI (SK-OV-3 ovarian) [µM] | GI50 (CCRF-CEM leukemia) [µM] | TGI (CCRF-CEM leukemia) [µM] | GI50 (OVCAR-4 ovarian) [µM] | TGI (OVCAR-4 ovarian) [µM] | GI50 (NCI-H23 lung) [µM] | TGI (NCI-H23 lung) [µM] | GI50 (CAKI-1 renal) [µM] | TGI (CAKI-1 renal) [µM] |
| --- | --- | --- | --- | --- | --- | --- | --- | --- | --- | --- | --- | --- | --- | --- | --- | --- | --- | --- | --- | --- |
| CCCCCCCCCCCCCCCC(=O)OCC1OC(n2cnc3c(=S)nc(N)[nH]c32)C(OC(=O)CCCCCCCCCCCCCCC)C1OC(=O)CCCCCCCCCCCCCCC (stereo not drawn) | 7.9 | > 50 | 6.88 | > 50 | 24.1 | > 50 | > 37.2 | > 50 | > 25.1 | > 50 | 1.55 | > 27.8 | 1.85 | > 50 | > 19.5 | > 50 | 12.9 | > 50 | 1.05 | > 14.8 |
| O=C(Nc1ncc(Cc2ccccc2)s1)c1ccc2c(c1)OCCCO2 | 1.92 | > 100 | 0.885 | > 100 | 0.631 | > 100 | 0.725 | > 100 | 0.282 | 3.03 | 3.17 | > 100 | 0.524 | > 100 | 5.22 | > 100 | 2.43 | > 100 | 0.526 | > 100 |
| COc1ccc(Nc2ccnc(NCCNc3ccnc4cc(Cl)ccc34)n2)cc1 | 3.65 | 15.6 | 1.5 | 3.48 | 1.69 | 5.22 | 3.67 | 13.7 | 0.874 | 4.92 | 7.21 | 20.5 | 1.65 | 8.23 | 1.45 | 13.8 | 2.75 | 14.9 | 1.73 | 4.57 |
| O=S(=O)([O-])[O-].[Cl-].[NH2-].[NH2-].[NH2-].[NH2-].[Ru+3].c1ccc(-c2cccnc2)cc1 | > 100 | > 100 | > 100 | > 100 | > 100 | > 100 | > 100 | > 100 | > 100 | > 100 | > 100 | > 100 | > 100 | > 100 | > 100 | > 100 | > 100 | > 100 | > 100 | > 100 |
| Cc1cc(=O)c2cc(N=Cc3ccc([N+](=O)[O-])o3)ccc2o1 | – | > 100 | – | > 100 | – | > 100 | – | > 100 | – | > 100 | – | > 100 | – | > 100 | – | > 100 | – | > 100 | – | > 100 |
| CN(C)c1ccc(/C=C/C(=O)C(C)(C)C)cc1Br | – | 70 | – | 73.9 | – | > 100 | – | > 100 | – | > 100 | – | > 100 | – | 85.1 | – | 52.2 | – | 75.9 | – | 91.9 |
| CCc1ccc(-c2ccc(=O)n(-c3ccc(S(N)(=O)=O)cc3)n2)cc1 | 9.06 | > 69.3 | – | > 100 | 3.36 | 29 | 3.14 | > 100 | 8.86 | > 61.4 | 4.44 | > 100 | 1.22 | > 100 | > 100 | > 100 | 11.9 | > 100 | 2.6 | > 100 |
| CN(C)C(=S)NN=C(c1ccccn1)c1ccccn1 | < 0.0362 | > 43.4 | 0.0327 | 21.2 | < 0.01 | > 59.4 | 0.101 | > 42.8 | 0.191 | 12.1 | 0.0487 | 16.7 | – | > 65.2 | < 0.01 | > 83.1 | < 0.01 | 16.3 | < 0.0127 | 6.59 |
| CC(=O)NC1=C(C)C(=O)c2c(nc3n2CCC3O)C1=O (stereo not drawn) | – | > 83.3 | – | > 100 | – | > 100 | – | > 100 | – | > 100 | – | > 100 | – | 39.3 | – | 29.7 | – | > 89.8 | – | > 100 |
| CCOC(=O)c1cc2c(n1Cc1cc(OC)cc(OC)c1)-c1oncc1CCC2 | 0.243 | > 100 | 0.322 | > 100 | 0.255 | > 100 | 0.112 | > 100 | 0.0469 | 0.295 | 0.108 | > 100 | 0.0542 | > 100 | 1.77 | > 100 | 0.544 | > 100 | 0.101 | > 100 |
| CC1=C(C(=O)Nc2ccc3[nH]ncc3c2)C(c2ccc(F)cc2)NC(=O)N1 (stereo not drawn) | 23.4 | > 25 | > 25 | > 25 | > 25 | > 25 | > 25 | > 25 | > 14.6 | > 25 | > 25 | > 25 | > 25 | > 25 | > 25 | > 25 | > 25 | > 25 | > 25 | > 25 |
| Cc1ccccc1S(=O)(=O)N1[C@H](c2ccc(Cl)cc2)C(C(=O)N[C@@H](Cc2ccccc2)C(N)=O)=C[C@@H]1C(C)(C)C | 6.56 | 16.4 | 6.48 | 13.5 | 5.28 | 12.1 | 3.43 | 13.1 | 7.3 | 14.4 | 8.5 | 21.7 | 5.77 | 26.7 | 6.25 | 13.4 | 8.05 | 17.6 | 5.68 | 16.6 |
| CCN(CC)CCOc1ccc(Nc2ncc3cc(-c4c(Cl)cccc4Cl)c(=O)n(CCOC)c3n2)cc1 | 0.145 | 1.29 | 1.25 | 3.57 | 0.608 | 5 | 0.498 | 4.18 | 0.0235 | 0.16 | 0.064 | 7.35 | 1.11 | 18.1 | 0.946 | 6.99 | 0.806 | 3.95 | 0.0149 | 0.174 |
